# Experimental data reported in US11638716B2, “Compounds, compositions, and methods for the treatment of disease” (F-star Therapeutics, Inc., priority 2017, dated 2023).
# Experiments:
# IRF [1] = experiment: In vitro induction of IRF in THP1 dual cells (Lucia reporter, ISG54 promoter); format: cell-based
# Protocol: (§1) Example 2. In Vitro Induction of IRF and NF-κβ in THP1 Cells
# (§2) THP1 dual cells grown in complete media were treated with various concentrations of a compound of the present disclosure or DMSO control. Dual cells carry both secreted embryonic alkaline phosphatase (SEAP) reporter gene under the control of an IFN-β minimal promoter fused to five copies of the NF-kB consensus transcriptional response element to measure NF-kB activity and Lucia reporter gene under the control of an ISG54 minimal promoter to measure IRF activity. After 20 h incubation, IRF activity was assessed using QUANTI-luc to measure levels of Lucia and NF-kB activity was determined by measure SEAP levels at 620-655 nm. % induction was calculated from fold change in luminescence/absorbance compared to DMSO treated sample. […] EC50 values were generated by curve fit in Xlfit.
# (§3) Cells grown in complete media were treated with various concentrations of a compound of the disclosure or DMSO control. Dual cells carry both secreted embryonic alkaline phosphatase (SEAP) reporter gene under the control of an IFN-β minimal promoter fused to five copies of the NF-kB consensus transcriptional response element to measure NF-kB activity and Lucia reporter gene under the control of an ISG54 minimal promoter to measure IRF activity. After 20 h incubation, IRF activity was assessed using QUANTI-luc to measure levels of Lucia and NF-kB activity was determined by measure SEAP levels at 620-655 nm. % induction was calculated from fold change in luminescence/absorbance compared to DMSO treated sample. EC50 values are generated by curve fit in Xlfit.
# STING KO cells = experiment: IRF and NF-kB reporter activity in STING KO cells; format: cell-based; conditions: 20 hours
# Protocol: (§4) FIG. 21 depicts cells stably expressing both or either one of the reporters to measure IRF and NF-kB activity were treated with a range of concentrations of compound 1 or DMSO control for 20 hours. IRF activity was assessed using QUANTI-luc to measure levels of Lucia and NF-kB activity was determined by measure SEAP levels at 620-655 nm. % induction was calculated from fold change in luminescence/absorbance compared to DMSO treated sample. EC50 values are generated by curve fit in Xlfit.
# as §4, with “22” for “21”, “2” for “1”
# as §4, with “24” for “21”, “3” for “1”
# as §4, with “27” for “21”, “4” for “1”
# as §3
# NF-κβ = experiment: In vitro induction of NF-κβ in THP1 dual cells (SEAP reporter); format: cell-based
# Protocol: as §1, §2, §3
# [2] = test system: peripheral blood mononuclear cells (PBMCs); experiment: IFNb and TNFa secretion by freshly isolated PBMCs (ELISA); format: cell-based, human; conditions: 20 hours
# Protocol: (§5) FIG. 25 depicts freshly isolated peripheral blood mononuclear cells (PBMCs) treated with a range of concentrations of compound 3 or DMSO control for 20 hours. Supernatants were collected to measure IFNb and TNFa secretion by Verikine-Human IFN beta Serum ELISA kit and Human TNF Alpha ELISA kit respectively. The amount of cytokine releases into supernatant was calculated by a standard curve. Compound 3 induces IFNβ and TNFα secretion in PBMCs after treatment.
# as §5, with “29” for “25”, “PBMCs that were” for “peripheral blood mononuclear cells (PBMCs)”, “4” for “3”
# wt-mSTING = molecular target: T1, wt-mSTING (Mus musculus, UniProt Q3TBT3); experiment: IRF/NF-kB reporter cells, wt-mSTING; format: cell-based; conditions: 20 hours
# T1 construct: endogenous in cells
# T1 sequence (Q3TBT3 1-378): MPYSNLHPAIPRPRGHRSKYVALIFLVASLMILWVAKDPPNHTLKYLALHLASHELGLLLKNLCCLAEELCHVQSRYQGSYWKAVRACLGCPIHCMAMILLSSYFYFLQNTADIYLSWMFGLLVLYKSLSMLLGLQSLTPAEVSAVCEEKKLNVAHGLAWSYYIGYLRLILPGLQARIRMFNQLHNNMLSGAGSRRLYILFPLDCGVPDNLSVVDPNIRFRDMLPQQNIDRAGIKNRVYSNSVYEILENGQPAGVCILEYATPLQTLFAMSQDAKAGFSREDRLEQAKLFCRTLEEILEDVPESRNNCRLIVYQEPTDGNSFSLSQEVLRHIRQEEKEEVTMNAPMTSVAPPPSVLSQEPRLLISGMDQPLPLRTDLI
# Protocol: as §4, with “22” for “21”, “2” for “1”
# as §4, with “24” for “21”, “3” for “1”
# as §4, with “27” for “21”, “4” for “1”
# Cells grown in complete media were treated with various concentrations of a compound of the disclosure or DMSO control. […] After 20 h incubation, IRF activity was assessed using QUANTI-luc to measure levels of Lucia and NF-kB activity was determined by measure SEAP levels at 620-655 nm. % induction was calculated from fold change in luminescence/absorbance compared to DMSO treated sample. […]
# [3] = test system: RAW-Lucia-ISG-STING KO cells; experiment: IRF-type I IFN secreted luciferase in RAW-Lucia-ISG-STING KO cells; format: cell-based; conditions: compound alone, 19 hours
# Protocol: FIG. 4 depicts RAW-Lucia-ISG-WT and RAW-Lucia-ISG-STING KO cells were stimulated with compound 2 or compound 4, alone for 19 hours. Activity of secreted luciferase (IRF-type I IFN activity) in cell culture supernatant was measured using Invivogen's Quanti-luc. Data is shown as fold induction over DMSO treated cells (mean±standard deviation of triplicate wells per stimulant). EC50 values were calculated using XLfit.
# IRF [4] = experiment: IRF signaling reporter (Lucia), compound 4 and diastereomers; format: cell-based; conditions: 20 hours
# Protocol: (§6) Cells were treated with various concentrations of compound 3 and two of its diastereomers (4-A and 4-B), or DMSO control for 20 hours. Cells stably expressed one or both of the reporters used to measure IRF activity. IRF activity was assessed using QUANTI-luc to measure levels of Lucia. % induction was calculated from fold change in luminescence/absorbance compared to DMSO treated sample.
# as §6, with “4” for “3”
# [5] = Homo sapiens, THP-1, 20 h incubation
SMILES,EC50 (IRF [1]; [5]) [nM],IRF activity in STING KO cells (STING KO cells),NF-κβ in STING KO cells (STING KO cells),EC50 (NF-κβ; [5]) [nM],IFNβ secretion [2],TNFα secretion [2],activity against wt-mSTING (wt-mSTING),EC50 (IRF [1]; 20 h incubation) [nM],IRF activity in STING KO cells [3],EC50 (NF-κβ; 20 h incubation) [nM],IRF signaling induction (IRF [4]; FIG. 34A),IRF signaling induction (IRF [4]; FIG. 34C)
N.N.Nc1ncnc2c1ncn2[C@@H]1O[C@@H]2COP(=O)(S)O[C@@H]3[C@H](F)[C@@H](COP(=O)(O)O[C@H]2[C@H]1F)O[C@H]3n1ccc(=O)[nH]c1=O (some centres unmarked) [Compound 3],< 50,did not induce,did not induce,> 2000,induces,induces,possess activity,–,–,–,–,–
CCCCCCCCCCOc1ccc(C(=O)Oc2ccc(CSP3(=O)OC[C@H]4O[C@@H](n5cnc6c(N)ncnc65)[C@H](F)[C@@H]4OP(=O)(O)OC[C@H]4O[C@@H](n5ccc(=O)[nH]c5=O)[C@H](O3)[C@@H]4F)cc2)cc1 (some centres unmarked) [Compound 4],–,did not induce,did not induce,–,induces,induces,possess activity,< 50,Neither compound induced IRF activity,< 50,efficacious in inducing IRF signaling,efficacious in inducing IRF signaling
